Literature values as cited in patent US20250057962A1, “PROCESSABLE COMPOSITIONS AND USE FOR THE SAME” (Ripple Therapeutics Corporation, priority 2021, published 2025).

Settings: given once a day

## CC(C)OC(=O)CCC/C=C\C[C@@H]1[C@@H](CC[C@@H](O)CCc2ccccc2)[C@H](O)C[C@@H]1O [latanoprost]
  mean IOP lowering: about 35%
